Values of other authors, collected in patent US20090023668A1, “Method for treating blepharitis” (priority 2006, published 2009).

Conditions: administered to an ocular area at a concentration of 0.1%

For `C[C@@H]1C[C@H]2[C@@H]3CCC4=CC(=O)C=C[C@]4(C)[C@@]3(F)[C@@H](O)C[C@]2(C)[C@@]1(O)C(=O)CO` [dexamethasone], which “effect on intraocular pressure” value is on record?
The value was “can result in an increase in intraocular pressure”.
